Measurements reported in PubChem BioAssay AID1259408 (Genetic Toxicology Data Bank (GENE-TOX), 2018).
Activity calls are given as the source filed them. How the calls were made is not given here.

System: GENE-TOX genotoxicity assays, various organisms and cells
Test: GENE-TOX mutagenicity studies
Settings: for call: Assay Type: In vivo carcinogenicity studies
[1] = Species/Cell Type: Escherichia coli WP2, Assay Type: Tryptophan reverse gene mutation, Assay Code: WP2-, Evaluation Type: Evaluation A (Pre-1980)
[2] = Species/Cell Type: Mammalian polychromatic erythrocytes, Assay Type: Micronucleus test, chromosome aberrations, Assay Code: MNTT, Evaluation Type: Evaluation A (Pre-1980)
[3] = Species/Cell Type: Mouse, Sex: Male, Assay Type: Sperm morphology, Assay Code: SPI-, Evaluation Type: Evaluation A (Pre-1980)
[4] = Species/Cell Type: Nonhuman, Assay Code: CCG+, Evaluation Type: Evaluation A (Pre-1980)
[5] = Species/Cell Type: Salmonella typhimurium, Assay Type: Forward and reverse gene mutation, host-mediated assay, Assay Code: HMA+, Evaluation Type: Evaluation A (Pre-1980)
[6] = Species/Cell Type: Syrian hamster embryo (SA7/SHE) cells, Assay Type: Cell transformation, viral enhanced, Assay Code: CT7-, Evaluation Type: Evaluation A (Pre-1980)
[7] = Species/Cell Type: Nonhuman, Assay Type: Sister-chromatid exchange (SCE) in vitro, Assay Code: SC2+D, Dose Response: With dose response, Evaluation Type: Evaluation B (Post-1980)
[8] = Species/Cell Type: Human lymphocytes, Assay Type: Sister-chromatid exchange (SCE) in vivo, Assay Code: SCY+, Evaluation Type: Evaluation B (Post-1980)
[9] = Species/Cell Type: Mammalian polychromatic erythrocytes, Assay Type: Micronucleus test, chromosome aberrations, Assay Code: MNT+, Evaluation Type: Evaluation B (Post-1980)
[10] = Species/Cell Type: Saccharomyces cerevisiae, Assay Type: Mitotic recombination or gene conversion, Assay Code: YEC-, Evaluation Type: Evaluation A (Pre-1980)
[11] = Species/Cell Type: Salmonella typhimurium (one or more of the five standard strains: TA98, TA100, TA1535, TA1537, and TA1538), Assay Type: Histidine reverse gene mutation, Ames assay, Assay Code: SALT, Evaluation Type: Evaluation A (Pre-1980)
[12] = Species/Cell Type: Chinese hamster lung (V79) cells, Assay Type: Forward gene mutation at the HPRT or ouabain locus, Assay Code: V79-, Evaluation Type: Evaluation A (Pre-1980)
[13] = Species/Cell Type: Syrian hamster embryo (SHE) cells, Assay Type: Cell transformation, clonal assay, Assay Code: CTCT, Evaluation Type: Evaluation A (Pre-1980)
[14] = Species/Cell Type: Escherichia coli polA (W3119 vs P3478), Assay Type: Rec-assay, DNA effects (bacterial DNA repair), Assay Code: RE1T, Evaluation Type: Evaluation A (Pre-1980)
[15] = Species/Cell Type: Salmonella typhimurium (one or more of the five standard strains: TA98, TA100, TA1535, TA1537, and TA1538), Assay Type: Histidine reverse gene mutation, Ames assay, Assay Code: SAL-, Evaluation Type: Evaluation A (Pre-1980)

With S=C1NCCN1 the mutagenic call [1] was “inactive; negative”, the mutagenic call (Species/Cell Type: Escherichia coli WP2 UVRA, Assay Type: Tryptophan reverse gene mutation, Assay Code: WPU-, Evaluation Type: Evaluation A (Pre-1980)) was “inactive; negative” and the mutagenic call [2] was “no conclusion”. The mutagenic call [3] was “inactive; negative”, the call [4] was “active; positive” and the mutagenic call (Species/Cell Type: Nonhuman, Assay Type: Sister-chromatid exchange (SCE) in vitro, Assay Code: SC2T, Evaluation Type: Evaluation B (Post-1980)) was “no conclusion”. For the same compound, the mutagenic call (Species/Cell Type: Rodents, Sex: Male, Assay Type: Dominant lethal test, Assay Code: DLT+, Evaluation Type: Evaluation A (Pre-1980)) was “active; positive”, the mutagenic call (Species/Cell Type: Salmonella typhimurium (one or more of the five standard strains: TA98, TA100, TA1535, TA1537, and TA1538), Assay Type: Histidine reverse gene mutation, Ames assay, Assay Code: SAL+, Evaluation Type: Evaluation A (Pre-1980)) was “active; positive” and the mutagenic call [5] was “active; positive”. For the same compound, the mutagenic call [6] was “inactive; negative” and the mutagenic call (Species/Cell Type: Tradescantia species, Assay Type: Gene mutation, Assay Code: TRM+D, Dose Response: With dose response, Evaluation Type: Evaluation A (Pre-1980)) was “active; positive”.
In the case of CCCCNCC, the mutagenic call (Species/Cell Type: Fischer rat embryo (RLV/1706) cells, Assay Type: Cell transformation, viral enhanced, Assay Code: CTR-, Evaluation Type: Evaluation A (Pre-1980)) is reported as “inactive; negative”.
In the case of Cc1cccc(-c2ccc(N)cc2C)c1, the mutagenic call (Species/Cell Type: Syrian hamster embryo (SHE) cells, Assay Type: Cell transformation, clonal assay, Assay Code: CTC+, Evaluation Type: Evaluation A (Pre-1980)) is reported as “active; positive”.
In the case of NC(=O)c1cccc(N)c1, the mutagenic call (Species/Cell Type: Chinese hamster ovary (CHO) cells, Assay Type: Forward gene mutation at the HPRT locus, Assay Code: CHOT, Evaluation Type: Evaluation B (Post-1980)) is reported as “no conclusion”, the mutagenic call (Species/Cell Type: Human, Assay Type: Sister-chromatid exchange (SCE) in vitro, Assay Code: SC1+D, Dose Response: With dose response, Evaluation Type: Evaluation B (Post-1980)) is reported as “active; positive” and the mutagenic call [7] is reported as “active; positive”.
In the case of CCCCCc1cc(O)c2c(c1)OC(C)(C)[C@@H]1CCC(C)=C[C@@H]21, the mutagenic call (Species/Cell Type: Fischer rat embryo (RLV/1706) cells, Assay Type: Cell transformation, viral enhanced, Assay Code: CTR+, Evaluation Type: Evaluation A (Pre-1980)) is reported as “active; positive”, the mutagenic call (Species/Cell Type: Human diploid fibroblasts, Assay Type: Unscheduled DNA synthesis (UDS) in vitro, DNA effects, Assay Code: UDH-, Evaluation Type: Evaluation A (Pre-1980)) is reported as “inactive; negative” and the mutagenic call (Species/Cell Type: Human lymphocytes or leukocytes, Assay Type: Chromosome aberrations in vivo, Assay Code: CY8-, Evaluation Type: Evaluation A (Pre-1980)) is reported as “inactive; negative”. For the same compound, the mutagenic call [8] was “active; positive”, the mutagenic call (Species/Cell Type: Human, Assay Type: Sister-chromatid exchange (SCE) in vitro, Assay Code: SC1-, Evaluation Type: Evaluation A (Pre-1980)) was “inactive; negative” and the mutagenic call [9] was “active; positive”. For the same compound, the mutagenic call [2] was “no conclusion” and the mutagenic call (Species/Cell Type: Mouse, Sex: Male, Assay Type: Sperm morphology, Assay Code: SPI+, Evaluation Type: Evaluation A (Pre-1980)) was “active; positive”.
O=Cc1ccc([N+](=O)[O-])o1 was tested, and the mutagenic call [1] was “inactive; negative” and the mutagenic call [10] was “inactive; negative”.
OC/C=C/c1ccc2c(c1)OCO2 was tested, and the mutagenic call [11] was “no conclusion”.
In the case of C[C@@]1(O)C=Cc2cc3c(ccc4ccccc43)c3c2[C@@]1(O)CC3, the mutagenic call [12] is reported as “inactive; negative”, the call (Species/Cell Type: Nonhuman, Assay Code: CCGT, Evaluation Type: Evaluation A (Pre-1980)) is reported as “no conclusion” and the mutagenic call [11] is reported as “no conclusion”.
O=[N+]([O-])O was tested, and the mutagenic call (Species/Cell Type: Bacillus subtilis (H17 vs M45), Assay Type: Rec-assay, spot test, DNA effects (bacterial DNA repair), Assay Code: REW+, Evaluation Type: Evaluation A (Pre-1980)) was “active; positive”, the mutagenic call (Species/Cell Type: Mammalian polychromatic erythrocytes, Assay Type: Micronucleus test, chromosome aberrations, Assay Code: MNT+U, Dose Response: Unconfirmed positive response, Evaluation Type: Evaluation B (Post-1980)) was “active; positive” and the mutagenic call [6] was “inactive; negative”. The mutagenic call [13] was “no conclusion”.
For Nc1ccc2[nH]ncc2c1, the mutagenic call (Species/Cell Type: Rat, Sex: Male, Assay Type: Sperm morphology, Assay Code: SPA+, Evaluation Type: Evaluation A (Pre-1980)) was “active; positive”.
In the case of CNNC, the mutagenic call (Species/Cell Type: Escherichia coli polA (W3119 vs P3478), Assay Type: Rec-assay, DNA effects (bacterial DNA repair), Assay Code: RE1+, Evaluation Type: Evaluation A (Pre-1980)) is reported as “active; positive”, the mutagenic call [14] is reported as “no conclusion” and the mutagenic call [9] is reported as “active; positive”. The mutagenic call [2] was “no conclusion”, the mutagenic call (Species/Cell Type: Mammalian polychromatic erythrocytes, Assay Type: Micronucleus test, chromosome aberrations, Assay Code: MNTT, Evaluation Type: Evaluation B (Post-1980)) was “no conclusion” and the call [4] was “active; positive”. The mutagenic call [7] was “active; positive”, the mutagenic call (Species/Cell Type: Saccharomyces cerevisiae, Assay Type: Mitotic recombination or gene conversion, Assay Code: YEHT, Evaluation Type: Evaluation A (Pre-1980)) was “no conclusion” and the mutagenic call [15] was “inactive; negative”. The mutagenic call (Species/Cell Type: Salmonella typhimurium, Assay Type: Forward and reverse gene mutation, body fluid assay, Assay Code: BFU-, Evaluation Type: Evaluation A (Pre-1980)) was “inactive; negative”, the mutagenic call [5] was “active; positive” and the mutagenic call [13] was “no conclusion”.
For COC(=O)Nc1ncc(-c2ccc(Br)cc2)[nH]1, the mutagenic call (Species/Cell Type: Salmonella typhimurium, Assay Type: Forward and reverse gene mutation, host-mediated assay, Assay Code: HMAT, Evaluation Type: Evaluation A (Pre-1980)) was “no conclusion”.
For CN(C)c1ccc(N=Nc2ccc(S(=O)(=O)O)cc2)cc1, the mutagenic call (Species/Cell Type: Bacillus subtilis (H17 vs M45T), Assay Type: Rec-assay, spot test, DNA effects (bacterial DNA repair), Assay Code: REXT, Evaluation Type: Evaluation A (Pre-1980)) was “no conclusion”, the mutagenic call [2] was “no conclusion” and the mutagenic call [3] was “inactive; negative”. The mutagenic call (Species/Cell Type: Nonhuman, Assay Type: Sister-chromatid exchange (SCE) in vitro, Assay Code: SC2+, Evaluation Type: Evaluation B (Post-1980)) was “active; positive” and the mutagenic call [15] was “inactive; negative”.
O=c1c(=O)c2c3ccccc3cc3ccc4cccc1c4c32 was tested, and the mutagenic call [12] was “inactive; negative” and the mutagenic call [11] was “no conclusion”.
Cc1c(N(C)CS(=O)(=O)O)c(=O)n(-c2ccccc2)n1C was tested, and the mutagenic call (Species/Cell Type: Human, Assay Type: Sister-chromatid exchange (SCE) in vitro, Assay Code: SC1T, Evaluation Type: Evaluation B (Post-1980)) was “no conclusion”.
In the case of Cc1c2ccccc2c(CO)c2ccc3ccccc3c12, the mutagenic call (Species/Cell Type: Chinese hamster lung (V79) cells, Assay Type: Forward gene mutation at the HPRT or ouabain locus, Assay Code: V79+, Evaluation Type: Evaluation A (Pre-1980)) is reported as “active; positive”, the mutagenic call (Species/Cell Type: Escherichia coli polA (W3110 vs P3478), Assay Type: Rec-assay, DNA effects (bacterial DNA repair), Assay Code: RE2+, Evaluation Type: Evaluation A (Pre-1980)) is reported as “active; positive” and the mutagenic call [14] is reported as “no conclusion”. For the same compound, the call [4] was “active; positive”, the mutagenic call (Species/Cell Type: Saccharomyces cerevisiae, Assay Type: Mitotic recombination or gene conversion, Assay Code: YEH-, Evaluation Type: Evaluation A (Pre-1980)) was “inactive; negative” and the mutagenic call (Species/Cell Type: Salmonella typhimurium (one or more of the five standard strains: TA98, TA100, TA1535, TA1537, and TA1538), Assay Type: Histidine reverse gene mutation, Ames assay, Assay Code: SAL+*, Activation: With metabolic activation, Evaluation Type: Evaluation A (Pre-1980)) was “active; positive”. For the same compound, the mutagenic call (Species/Cell Type: Salmonella typhimurium, Assay Type: Forward and reverse gene mutation, host-mediated assay, Assay Code: HMA-, Evaluation Type: Evaluation A (Pre-1980)) was “inactive; negative”.
CCN(CCCl)CCCNc1c2ccc(Cl)cc2nc2ccc(OC)nc12 was tested, and the mutagenic call (Species/Cell Type: Chinese hamster ovary (CHO) cells, Assay Type: Forward gene mutation at the HPRT locus, Assay Code: CHO+, Evaluation Type: Evaluation B (Post-1980)) was “active; positive”.
With COc1nc(OC)nc(N2CC2)n1 the mutagenic call (Species/Cell Type: Allium cepa, Assay Type: Chromosome aberrations, Assay Code: ALC+, Evaluation Type: Evaluation A (Pre-1980)) was “active; positive”.
In the case of COc1cc(/C=C/C(=O)CC(=O)/C=C/c2ccc(O)c(OC)c2)ccc1O, the mutagenic call [10] is reported as “inactive; negative”.
With CCC1(c2ccccc2)C(=O)NC(=O)NC1=O the mutagenic call [8] was “active; positive”, the mutagenic call [9] was “active; positive” and the mutagenic call [2] was “no conclusion”. For the same compound, the mutagenic call [3] was “inactive; negative” and the mutagenic call (Species/Cell Type: Syrian hamster embryo (SHE) cells, Assay Type: Cell transformation, clonal assay, Assay Code: CTC-, Evaluation Type: Evaluation A (Pre-1980)) was “inactive; negative”.
CN(CC(C)(C)C)N=O was tested, and the mutagenic call [11] was “no conclusion”.
